Molecular target: T1, pfGDPD (Pyrococcus furiosus, UniProt Q8TZI9)
T1 construct: gene PF2003; full length 253 aa, no signal peptide; synthetic gene in pET28a, N- and C-terminal His6 tags kept; E. coli SHuffle T7; Ni-NTA; 34,059 Da
T1 sequence (Q8TZI9 1-253): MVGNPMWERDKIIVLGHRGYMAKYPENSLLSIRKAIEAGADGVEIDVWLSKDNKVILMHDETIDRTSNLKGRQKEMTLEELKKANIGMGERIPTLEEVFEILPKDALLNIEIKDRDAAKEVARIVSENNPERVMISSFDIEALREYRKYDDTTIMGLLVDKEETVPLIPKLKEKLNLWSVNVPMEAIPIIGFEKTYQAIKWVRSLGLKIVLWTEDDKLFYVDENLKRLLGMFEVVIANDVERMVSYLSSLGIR
Assay: colorimetric p-nitrophenol release
Format: biochemical
Conditions: Mn2+ (best at 5 mM), 50 mM Tris-HCl pH 8.5, 55 °C

## O=[N+]([O-])c1ccc(OP(=O)(O)Oc2ccc([N+](=O)[O-])cc2)cc1 [bis(p-nitrophenyl) phosphate]
  colorimetric p-nitrophenol release: The optimal temperature of recombinant pfGDPD was determined using BpNPP as substrate

— publication PMC4926365, “Expression and Characterization of a Novel Glycerophosphodiester Phosphodiesterase from Pyrococcus furiosus DSM 3638 That Possesses Lysophospholipase D Activity” (International Journal of Molecular Sciences, 2016)
